Data reported in paper PMC11364775, “Ion occupancy of the selectivity filter controls opening of a cytoplasmic gate in the K2P channel TALK-2” (Nature Communications, 2024).
Positions count from the first letter of the chain named. “Also recorded” adds a separate entry of the source. Where two headings read alike, the source gives them in different places.

Legend:
[1] = target: T1, TALK-2 L264A mutant channels (Homo sapiens, UniProt Q96T54, L264A)
T1 sequence (Q96T54 1-332 L264A): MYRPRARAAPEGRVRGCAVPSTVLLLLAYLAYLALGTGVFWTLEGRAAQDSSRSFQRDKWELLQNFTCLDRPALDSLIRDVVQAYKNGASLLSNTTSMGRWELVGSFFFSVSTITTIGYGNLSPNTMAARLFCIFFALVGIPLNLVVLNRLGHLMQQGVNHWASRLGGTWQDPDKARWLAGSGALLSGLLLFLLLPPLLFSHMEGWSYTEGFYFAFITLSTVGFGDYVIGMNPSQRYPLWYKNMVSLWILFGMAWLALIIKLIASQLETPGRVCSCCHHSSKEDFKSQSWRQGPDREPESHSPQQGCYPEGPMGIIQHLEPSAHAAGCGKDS
Protocol: Oocytes were surgically removed from anesthetized adult females, treated with type II collagenase (Sigma-Aldrich/Merck, Germany) and manually defolliculated. 50 nl of a solution containing the K^+ channel specific cRNA was injected into Dumont stage V - VI oocytes and subsequently incubated at 17 °C in a solution containing (mM): 54 NaCl, 30 KCl, 2.4 NaHCO3, 0.82 MgSO4 x 7 H2O, 0.41 CaCl2, 0.33 Ca(NO3)2 x 4 H2O and 7.5 TRIS (pH 7.4 adjusted with NaOH/HCl) for 1–7 days before use. Electrophysiological recordings: Excised patch measurements in inside-out configuration under voltage-clamp conditions were performed at room temperature (22 – 24 °C). […] Currents were recorded with an EPC10 amplifier (HEKA electronics, Germany) and sampled at 10 kHz or higher and filtered with 3 kHz (-3 dB) or higher as appropriate for sampling rate.
Recorded currents were analyzed from stable membrane patches at a voltage defined in the respective figure legend or with a voltage protocol as indicated in the respective figure. The fold activation (fold change in (tail) current amplitude) of a ligand (drug or bioactive lipid) was calculated from Eq. 1:1 Fold activationFA=Iactivated/Ibasal where Iactivated represents the stable current level in the presence of a given concentration of a respective ligand and Ibasal the measured current before ligand application. […]

WT TALK-2 channels [2] = target: T2, WT TALK-2 channels (Homo sapiens, UniProt Q96T54); conditions: TALK-2 WT
T2 sequence (Q96T54 1-332): T1 sequence (Q96T54 1-332 L264A) with A264L
Protocol: Data shown are the mean ± s.e.m and the number (n) of repeats of the representative measurements with similar results is indicated in the figure.
Oocytes were surgically removed from anesthetized adult females, treated with type II collagenase (Sigma-Aldrich/Merck, Germany) and manually defolliculated. 50 nl of a solution containing the K^+ channel specific cRNA was injected into Dumont stage V - VI oocytes and subsequently incubated at 17 °C in a solution containing (mM): 54 NaCl, 30 KCl, 2.4 NaHCO3, 0.82 MgSO4 x 7 H2O, 0.41 CaCl2, 0.33 Ca(NO3)2 x 4 H2O and 7.5 TRIS (pH 7.4 adjusted with NaOH/HCl) for 1–7 days before use. Electrophysiological recordings: Excised patch measurements in inside-out configuration under voltage-clamp conditions were performed at room temperature (22 – 24 °C). Patch pipettes were made from thick-walled borosilicate glass GB 200TF-8P (Science Products, Germany), had resistances of 0.2–0.5 MΩ (tip diameter of 10 - 25 µm) and filled with a pipette solution (in mM): 120 KCl, 10 HEPES and 3.6 CaCl2 (pH 7.0 - 8.5 adjusted with KOH/HCl) or 120 KCl, 10 AMPSO and 3.6 CaCl2 (pH 9.0 - 10.5 adjusted with KOH/HCl). Intracellular bath solutions and compounds were applied to the cytoplasmic side of excised patches for the various K^+ channels via a gravity flow multi-barrel pipette system. Intracellular solution had the following composition (in mM): 120 KCl, 10 HEPES, 2 EGTA and 1 Pyrophosphate (pH adjusted with KOH/HCl). In other intracellular bath solutions, K^+ was replaced by Rb^+ (pH 7.4 adjusted with RbOH/HCl). Currents were recorded with an EPC10 amplifier (HEKA electronics, Germany) and sampled at 10 kHz or higher and filtered with 3 kHz (-3 dB) or higher as appropriate for sampling rate.

WT TALK-2 channels [3] = target: T2, WT TALK-2 channels; assay: Pore blocker inhibition (dose-response, residual currents) in inside-out patches at +40 mV; assay type: cell-based; parameters: expressed in transfected cells; host or cells: Xenopus laevis oocytes (cRNA injection), excised inside-out patches; conditions: for IC50: IC50 of TPenA inhibition
Protocol: (§1) Data shown are the mean ± s.e.m and the number (n) of independent experiments and repeats of representative measurements with similar results is indicated in the figure.
(§2) Electrophysiological recordings: Excised patch measurements in inside-out configuration under voltage-clamp conditions were performed at room temperature (22 – 24 °C). Patch pipettes were made from thick-walled borosilicate glass GB 200TF-8P (Science Products, Germany), had resistances of 0.2–0.5 MΩ (tip diameter of 10 - 25 µm) and filled with a pipette solution (in mM): 120 KCl, 10 HEPES and 3.6 CaCl2 (pH 7.0 - 8.5 adjusted with KOH/HCl) or 120 KCl, 10 AMPSO and 3.6 CaCl2 (pH 9.0 - 10.5 adjusted with KOH/HCl). Intracellular bath solutions and compounds were applied to the cytoplasmic side of excised patches for the various K^+ channels via a gravity flow multi-barrel pipette system. Intracellular solution had the following composition (in mM): 120 KCl, 10 HEPES, 2 EGTA and 1 Pyrophosphate (pH adjusted with KOH/HCl). In other intracellular bath solutions, K^+ was replaced by Rb^+ (pH 7.4 adjusted with RbOH/HCl). Currents were recorded with an EPC10 amplifier (HEKA electronics, Germany) and sampled at 10 kHz or higher and filtered with 3 kHz (-3 dB) or higher as appropriate for sampling rate.
(§3) Data analysis and statistics were done using Fitmaster (HEKA electronics, version: v2x73.5, Germany), Microsoft Excel 2021 (Microsoft Corporation, USA), and Igor Pro 9 software (WaveMetrics Inc., USA). Recorded currents were analyzed from stable membrane patches at a voltage defined in the respective figure legend or with a voltage protocol as indicated in the respective figure. […] Percentage inhibition or residual currents upon blocker application for a ligand (drug or bioactive lipid) was calculated from stable currents of excised membrane patches using the following Eqs. 2 and 3:2 %inhibition=1−Iinhibited/Ibasal*100 3 Residual current=100−%inhibition where Iinhibited refers to the stable current level recorded in the presence of a given concentration of a drug or bioactive lipid and Ibasal to the measured current before ligand application.

[4] = target: T1, TALK-2 L264A mutant channels; assay: as above; assay type: cell-based; parameters: expressed in transfected cells; host or cells: Xenopus laevis oocytes (cRNA injection), excised inside-out patches
Protocol: as §1, §2, §3

WT TALK-2 channels [5] = target: T2, WT TALK-2 channels; assay: Tail current deactivation kinetics with pore blocker (inside-out patch); assay type: cell-based; parameters: expressed in transfected cells; host or cells: Xenopus laevis oocytes (cRNA injection), excised inside-out patches
Source text: In voltage-gated K^+ (Kv) channels, the closing of the lower gate can be prevented by the binding of blockers such as tetra-pentyl-ammonium (TPenA) in the pore cavity and, thereby, causing a slowing of the deactivation kinetics which is known as the ‘foot in the door’ effect[33],[34]. To test for such a mechanism in TALK-2, we activated the channels with a voltage step to +100 mV in the presence of intracellular Rb^+ followed by a repolarization step to -80 mV (to induce tail currents) with and without the K2P channel pore blocker TPenA. […] We hypothesize, that the two gates are strongly coupled and, therefore, opening the SF gate by depolarization should also open the lower gate, which then consequently would allow blocker (like TPenA) binding within the pore cavity (Fig. 5a cartoon). Upon repolarization, however, the bound TPenA blocker obstructs closure of the lower gate and thereby, hinders the SF from closure/inactivation (gate coupling).

NCCOB(c1ccccc1)c1ccccc1 [2-APB, 2-aminoethoxydiphenyl borate]
Fold activation 1 mM 2-APB ([1]; 1 mM): 2.78 fold
further current increase by 2-APB ([1]; 1.0 mM 2-APB): only a minor further current increase
Rb+-induced current (WT TALK-2 channels [2]; 0.001 mM 2-APB): 0.79 nA
Rb+-induced current (WT TALK-2 channels [2]; 0.01 mM 2-APB): 0.98 nA
Rb+-induced current (WT TALK-2 channels [2]; 0.1 mM 2-APB): 2.85 nA
Rb+-induced current (WT TALK-2 channels [2]; 0.5 mM 2-APB): 8.79 nA
Rb+-induced current (WT TALK-2 channels [2]; 1.0 mM 2-APB): 11.82 nA
Rb+-induced current (WT TALK-2 channels [2]; 2.0 mM 2-APB): 15.32 nA

CCCCC[N+](CCCCC)(CCCCC)CCCCC [TPenA, Tetra-pentyl-ammonium chloride]
IC50 (WT TALK-2 channels [3]; 0.2 mM 2-APB, n = 7, legend of Fig. 5e): 778 ± 116 µM
IC50 (WT TALK-2 channels [3]; 0.5 mM 2-APB, n = 5, legend of Fig. 5e): 215 ± 28 µM
IC50 (WT TALK-2 channels [3]; 1.0 mM 2-APB, n = 16, legend of Fig. 5e): 54 ± 10 µM
IC50 (WT TALK-2 channels [3]; pre-activated with 0.2 mM 2-APB, +40 mV): 1110 ± 411 µM
IC50 (WT TALK-2 channels [3]; pre-activated with 0.5 mM 2-APB, +40 mV): 225 ± 25 µM
Normalized currents (WT TALK-2 channels [3]; TALK-2 WT + 0.2 mM 2-APB, 1 µM TPenA): 1.00
Normalized currents (WT TALK-2 channels [3]; TALK-2 WT + 0.2 mM 2-APB, 10 µM TPenA): 0.87
Normalized currents (WT TALK-2 channels [3]; TALK-2 WT + 0.2 mM 2-APB, 100 µM TPenA): 0.81
Normalized currents (WT TALK-2 channels [3]; TALK-2 WT + 0.2 mM 2-APB, 1000 µM TPenA): 0.47
Normalized currents (WT TALK-2 channels [3]; TALK-2 WT + 0.2 mM 2-APB, 10000 µM TPenA): 0.15
Normalized currents (WT TALK-2 channels [3]; TALK-2 WT + 0.5 mM 2-APB, 1 µM TPenA): 1.02
Normalized currents (WT TALK-2 channels [3]; TALK-2 WT + 0.5 mM 2-APB, 10 µM TPenA): 0.89
Normalized currents (WT TALK-2 channels [3]; TALK-2 WT + 0.5 mM 2-APB, 100 µM TPenA): 0.63
Normalized currents (WT TALK-2 channels [3]; TALK-2 WT + 0.5 mM 2-APB, 1000 µM TPenA): 0.25
Normalized currents (WT TALK-2 channels [3]; TALK-2 WT + 0.5 mM 2-APB, 10000 µM TPenA): 0.08
Normalized currents (WT TALK-2 channels [3]; TALK-2 WT + 1.0 mM 2-APB, 1 µM TPenA): 1.00
Normalized currents (WT TALK-2 channels [3]; TALK-2 WT + 1.0 mM 2-APB, 10 µM TPenA): 0.87
Normalized currents (WT TALK-2 channels [3]; TALK-2 WT + 1.0 mM 2-APB, 100 µM TPenA): 0.33
Normalized currents (WT TALK-2 channels [3]; TALK-2 WT + 1.0 mM 2-APB, 1000 µM TPenA): 0.07
Normalized currents (WT TALK-2 channels [3]; TALK-2 WT + 1.0 mM 2-APB, 2000 µM TPenA): 0.06
Normalized currents (WT TALK-2 channels [3]; TALK-2 WT + 1.0 mM 2-APB, 5000 µM TPenA): 0.06
Normalized currents (WT TALK-2 channels [3]; TALK-2 WT + 1.0 mM 2-APB, 10000 µM TPenA): 0.01
Residual currents with 1 mM TPenA (WT TALK-2 channels [3]; TALK-2 WT unstimulated, +40 mV): 101.31%
Residual currents with 1 mM TPenA (WT TALK-2 channels [3]; TALK-2 WT, 0.2 mM 2-APB, +40 mV): 47.38%
Residual currents with 1 mM TPenA (WT TALK-2 channels [3]; TALK-2 WT, 0.5 mM 2-APB, +40 mV): 25.47%
Residual currents with 1 mM TPenA (WT TALK-2 channels [3]; TALK-2 WT, 1.0 mM 2-APB, +40 mV): 6.78%
Normalized currents (WT TALK-2 channels [3]; TALK-2 WT, 1 µM TPenA): 0.98
Normalized currents (WT TALK-2 channels [3]; TALK-2 WT, 10 µM TPenA): 0.97
Normalized currents (WT TALK-2 channels [3]; TALK-2 WT, 100 µM TPenA): 0.95
Normalized currents (WT TALK-2 channels [3]; TALK-2 WT, 1000 µM TPenA): 0.95
Normalized currents (WT TALK-2 channels [3]; TALK-2 WT, 5000 µM TPenA): 0.98
Normalized currents (WT TALK-2 channels [3]; TALK-2 WT, 10000 µM TPenA): 0.99
TPenA block in the basal state (WT TALK-2 channels [3]; basal state (low PO), 1.0 mM TPenA): hardly any TPenA block
IC50 [4]: 459 ± 58 µM
Residual currents with 1 mM TPenA ([4]; TALK-2 L264A, +40 mV): 29.31%
Normalized currents ([4]; TALK-2 L264A, 1 µM TPenA): 0.99
Normalized currents ([4]; TALK-2 L264A, 10 µM TPenA): 0.97
Normalized currents ([4]; TALK-2 L264A, 100 µM TPenA): 0.77
Normalized currents ([4]; TALK-2 L264A, 1000 µM TPenA): 0.32
Normalized currents ([4]; TALK-2 L264A, 4000 µM TPenA): 0.17
effect of TPenA inhibition on tail current kinetics (WT TALK-2 channels [5]; 2-APB-activated TALK-2 (1.0 mM 2-APB, 1.0 mM TPenA)): no effect; also recorded: little effect
deactivation time constant τ of tail currents (WT TALK-2 channels [5]; intracellular Rb+ with 1.0 mM TPenA, step to +100 mV, repolarization to -80 mV): 7.4 ± 0.4 ms
TPenA block of the tail current amplitudes (WT TALK-2 channels [5]; intracellular Rb+, tail currents at -80 mV): ~ 50%
slowing of the deactivation kinetics (WT TALK-2 channels [5]; with ~50 % TPenA block, intracellular Rb+): ~ 2.5 fold
